Patent publication US12528786B2, “Plasma kallikrein inhibitors” (Merck Sharp & Dohme LLC, priority 2020, dated 2026)

Biological target: T1, Human plasma kallikrein (Homo sapiens, UniProt P03952)
T1 construct: yields a heavy chain (371 amino acids) and a light chain (248 amino acids); purchased Enzyme Research Laboratories
Test: Kallikrein Assay (fluorogenic substrate hydrolysis, AFC release)
Format: biochemical
Conditions: purified Human plasma kallikrein 0.5 nM; substrate Acetyl-K—P—R-AFC 100 mM; 50 mM HEPES pH 7.4
Method: The effectiveness of a compound of the present invention as an inhibitor of Kallikrein can be determined using a relevant purified serine protease, and an appropriate synthetic substrate. The rate of hydrolysis of the chromogenic or fluorogenic substrate by the relevant serine protease was measured both in the absence and presence of compounds of the present invention. Assays were conducted at room temperature or at 37° C. […] A decrease in the rate of fluorescence change in the presence of inhibitor is indicative of enzyme inhibition. Such methods are known to one skilled in the art. The results of this assay are expressed as the half-maximal inhibitory concentrations (IC50), or the inhibitory constant, Ki.
Kallikrein determinations were made in 50 mM HEPES buffer at pH 7.4 containing 150 mM NaCl, 5 mM CaCl2), and 0.1% PEG 8000 (polyethylene glycol; Fisher Scientific). Determinations were made using purified Human plasma kallikrein at a final concentration of 0.5 nM (Enzyme Research Laboratories) and the synthetic substrate, Acetyl-K—P—R-AFC (Sigma #C6608) at a concentration of […].
Activity assays were performed by diluting a stock solution of substrate at least tenfold to a final concentration ≤0.2 Km into a solution containing enzyme or enzyme equilibrated with inhibitor. Times required to achieve equilibration between enzyme and inhibitor were determined in control experiments. The reactions were performed under linear progress curve conditions and fluorescence increase measured at 405 Ex/510 Em nm. Values were converted to percent inhibition of the control reaction (after subtracting 100% Inhibition value). IC50 was determined by inflection point from a four parameter logistic curve fit. Ki was calculated using the Cheng Prusoff equation, Ki=IC50/(1+([S]/Km)).

T1 sequence (P03952 391-638 limits assumed): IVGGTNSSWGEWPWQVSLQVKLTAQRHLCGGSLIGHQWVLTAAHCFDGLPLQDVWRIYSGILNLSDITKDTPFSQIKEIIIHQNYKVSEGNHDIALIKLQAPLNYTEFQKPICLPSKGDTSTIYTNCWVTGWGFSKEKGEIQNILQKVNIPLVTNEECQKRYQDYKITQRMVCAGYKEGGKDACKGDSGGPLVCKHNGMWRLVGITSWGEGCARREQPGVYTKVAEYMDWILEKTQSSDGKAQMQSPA
T1 sequence (P03952 20-390 partner limits assumed): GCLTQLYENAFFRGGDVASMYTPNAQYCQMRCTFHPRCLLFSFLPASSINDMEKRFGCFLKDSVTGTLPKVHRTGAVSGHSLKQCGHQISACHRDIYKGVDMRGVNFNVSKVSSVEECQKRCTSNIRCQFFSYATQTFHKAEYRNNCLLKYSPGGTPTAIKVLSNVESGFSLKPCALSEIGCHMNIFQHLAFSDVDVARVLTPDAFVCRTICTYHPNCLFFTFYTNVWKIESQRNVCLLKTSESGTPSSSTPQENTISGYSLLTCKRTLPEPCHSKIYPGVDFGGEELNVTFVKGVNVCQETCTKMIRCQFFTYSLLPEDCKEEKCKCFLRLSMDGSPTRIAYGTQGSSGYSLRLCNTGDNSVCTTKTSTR

Work on `COc1cc(C(C)n2cc(C(=O)N[C@H]3C[C@@H](c4cc(Cl)ccc4C#N)C3)nn2)cnc1N1C[C@H]2C[C@H]2C1=O` (mixture of isomers) [Example 100, N-((cis)-3-(5-chloro-2-cyanophenyl)cyclobutyl)-1-((R and S)-1-(5-methoxy-6-((1R,5S)-2-oxo-3-azabicyclo[3.1.0]hexan-3-yl)pyridin-3-yl)ethyl)-1H-1,2,3-triazole-4-carboxamide] yielded an IC50 of 2 nM.
For `Cc1c([C@H](C)n2cc(C(=O)N[C@H]3C[C@@H](c4cc(Cl)ccc4C#N)C3)nn2)cnc(N2C[C@H]3C[C@H]3C2=O)c1O` (relative stereo) [Example 164, N-((cis)-3-(5-chloro-2-cyanophenyl)cyclobutyl)-1-((S)-1-(5-hydroxy-4-methyl-6-((1R,5S)-2-oxo-3-azabicyclo[3.1.0]hexan-3-yl)pyridin-3-yl)ethyl)-1H-12,3-triazole-4-carboxamide], the IC50 was 46.7 nM.
In the case of `CC(c1cnc(N2C[C@H]3C[C@H]3C2=O)nc1)n1cc(C(=O)N[C@H]2C[C@@H](c3cc(Cl)ccc3C#N)C2)cn1` (single isomer, unassigned) [Example 3, N-((cis)-3-(5-chloro-2-cyanophenyl)cyclobutyl)-1-((R or S)-1-(2-((1R,5S)-2-oxo-3-azabicyclo[3.1.0]hexan-3-yl)pyrimidin-5-yl)ethyl)-1H-pyrazole-4-carboxamide], the IC50 is reported as 6.7 nM.
For `CC(c1cnc(N2C[C@H]3C[C@H]3C2=O)nc1)n1cc(C(=O)N[C@H]2C[C@@H](c3cc(Cl)ccc3C#N)C2)cn1` (single isomer, unassigned) [Example 4, N-((cis)-3-(5-chloro-2-cyanophenyl)cyclobutyl)-1-((S or R)-1-(2-((1R,5S)-2-oxo-3-azabicyclo[3.1.0]hexan-3-yl)pyrimidin-5-yl)ethyl)-1H-pyrazole-4-carboxamide carboxamide], the IC50 was 17.5 nM.
`Cc1cc([C@H](C)n2cc(C(=O)N[C@H]3C[C@@H](c4cc(Cl)ccc4C#N)C3)cn2)cnc1N1C[C@H]2C[C@H]2C1=O` (single isomer, unassigned) [Example 5] gave an IC50 of 0.6 nM.
`Cc1cc([C@@H](C)n2cc(C(=O)N[C@H]3C[C@@H](c4cc(Cl)ccc4C#N)C3)cn2)cnc1N1C[C@H]2C[C@H]2C1=O` (single isomer, unassigned) [Example 6] gave an IC50 of 0.7 nM.
`Cc1cc(N2C[C@H]3C[C@H]3C2=O)ncc1C(C)n1cc(C(=O)N[C@H]2C[C@@](C)(c3cc(Cl)ccc3C#N)C2)cn1` (single isomer, unassigned) [Example 9, N-((cis)-3-(5-chloro-2-cyanophenyl)-3-methylcyclobutyl)-1-((R or S)-1-(4-methyl-6-((1R,5S)-2-oxo-3-azabicyclo[3.1.0]hexan-3-yl)pyridin-3-yl)ethyl)-1H-pyrazole-4-carboxamide] was tested, and the IC50 was 0.3 nM.
Compound `Cc1cc(N2C[C@H]3C[C@H]3C2=O)ncc1C(C)n1cc(C(=O)N[C@H]2C[C@@](C)(c3cc(Cl)ccc3C#N)C2)cn1` (single isomer, unassigned) [Example 10, N-((cis)-3-(5-chloro-2-cyanophenyl)-3-methylcyclobutyl)-1-((S or R)-1-(4-methyl-6-((1R,5S)-2-oxo-3-azabicyclo[3.1.0]hexan-3-yl)pyridin-3-yl)ethyl)-1H-pyrazole-4-carboxamide] has an IC50 of 3.6 nM.
Work on `COc1cc(N2C[C@H]3C[C@H]3C2=O)ncc1[C@H](C)n1cc(C(=O)N[C@H]2C[C@@H](c3cc(Cl)ccc3C#N)C2)cn1` (single isomer, unassigned) [Example 11] yielded an IC50 of 0.9 nM.
Compound `COc1cc(N2C[C@H]3C[C@H]3C2=O)ncc1[C@@H](C)n1cc(C(=O)N[C@H]2C[C@@H](c3cc(Cl)ccc3C#N)C2)cn1` (single isomer, unassigned) [Example 12] has an IC50 of 7.7 nM.
`COc1cc(C(C)n2cc(C(=O)N[C@H]3C[C@@H](c4cc(Cl)ccc4C#N)C3)cn2)cnc1N1C[C@H]2C[C@H]2C1=O` (single isomer, unassigned) [Example 13, N-((cis)-3-(5-chloro-2-cyanophenyl)cyclobutyl)-1-((R or S)-1-(5-methoxy-6-((1R,5S)-2-oxo-3-azabicyclo[3.1.0]hexan-3-yl)pyridin-3-yl)ethyl)-1H-pyrazole-4-carboxamide] gave an IC50 of 1 nM.
For `COc1cc(C(C)n2cc(C(=O)N[C@H]3C[C@@H](c4cc(Cl)ccc4C#N)C3)cn2)cnc1N1C[C@H]2C[C@H]2C1=O` (single isomer, unassigned) [Example 14, N-((cis)-3-(5-chloro-2-cyanophenyl)cyclobutyl)-1-((S or R)-1-(5-methoxy-6-((1R,5S)-2-0x0-3-azabicyclo[3.1.0]hexan-3-yl)pyridin-3-yl)ethyl)-1H-pyrazole-4-carboxamide], the IC50 was 2.8 nM.
`Cc1nn(C(C)c2cnc(N3C[C@H]4C[C@H]4C3=O)nc2)cc1C(=O)N[C@H]1C[C@@H](c2cc(Cl)ccc2C#N)C1` (single isomer, unassigned) [Example 15, N-((cis)-3-(5-chloro-2-cyanophenyl)cyclobutyl)-3-methyl-1-((R or S)-1-(2-((1R,5S)-2-oxo-3-azabicyclo[3.1.0]hexan-3-yl)pyrimidin-5-yl)ethyl)-1H-pyrazole-4-carboxamide] was tested, and the IC50 was 2.6 nM.
For `Cc1nn(C(C)c2cnc(N3C[C@H]4C[C@H]4C3=O)nc2)cc1C(=O)N[C@H]1C[C@@H](c2cc(Cl)ccc2C#N)C1` (single isomer, unassigned) [Example 16, N-((cis)-3-(5-chloro-2-cyanophenyl)cyclobutyl)-3-methyl-1-((S or R)-1-(2-((1R,5S)-2-oxo-3-azabicyclo[3.1.0]hexan-3-yl)pyrimidin-5-yl)ethyl)-1H-pyrazole-4-carboxamide], the IC50 was 6.7 nM.
`CC(c1cnc(N2C[C@H]3C[C@H]3C2=O)nc1)n1cc(C(=O)N[C@H]2C[C@@H](c3cc(Cl)ccc3C#N)C2)c(C#N)n1` (single isomer, unassigned) [Example 17, N-((cis)-3-(5-chloro-2-cyanophenyl)cyclobutyl)-3-cyano-1-((R or S)-1-(2-((1R,5S)-2-oxo-3-azabicyclo[3.1.0]hexan-3-yl)pyrimidin-5-yl)ethyl)-1H-pyrazole-4-carboxamide] showed an IC50 of 5.5 nM.
Compound `CC(c1cnc(N2C[C@H]3C[C@H]3C2=O)nc1)n1cc(C(=O)N[C@H]2C[C@@H](c3cc(Cl)ccc3C#N)C2)c(C#N)n1` (single isomer, unassigned) [Example 18, N-((cis)-3-(5-chloro-2-cyanophenyl)cyclobutyl)-3-cyano-1-((S or R)-1-(2-((1R,5S)-2-oxo-3-azabicyclo[3.1.0]hexan-3-yl)pyrimidin-5-yl)ethyl)-1H-pyrazole-4-carboxamide] has an IC50 of 10.2 nM.
With `Cc1cc(N2C[C@H]3C[C@H]3C2=O)ncc1C(C)n1cc(C(=O)N[C@H]2C[C@@H](c3cc(Cl)ccc3C#N)C2)c(C)n1` (single isomer, unassigned) [Example 19, N-((cis)-3-(5-chloro-2-cyanophenyl)cyclobutyl)-3-methyl-1-((R or S)-1-(4-methyl-6-((1R,5S)-2-oxo-3-azabicyclo[3.1.0]hexan-3-yl)pyridin-3-yl)ethyl)-1H-pyrazole-4-carboxamide] the IC50 was 0.3 nM.
`Cc1cc(N2C[C@H]3C[C@H]3C2=O)ncc1C(C)n1cc(C(=O)N[C@H]2C[C@@H](c3cc(Cl)ccc3C#N)C2)c(C)n1` (single isomer, unassigned) [Example 20, N-((cis)-3-(5-chloro-2-cyanophenyl)cyclobutyl)-3-methyl-1-((S or R)-1-(4-methyl-6-((1R,5S)-2-oxo-3-azabicyclo[3.1.0]hexan-3-yl)pyridin-3-yl)ethyl)-1H-pyrazole-4-carboxamide] gave an IC50 of 2.1 nM.
In the case of `CC(c1cnc(N2C[C@H]3C[C@H]3C2=O)c(F)c1)n1cc(C(=O)N[C@H]2C[C@@H](c3cc(Cl)ccc3C#N)C2)cn1` (single isomer, unassigned) [Example 21, N-((cis)-3-(5-chloro-2-cyanophenyl)cyclobutyl)-1-((R or S)-1-(5-fluoro-6-((1R,5S)-2-oxo-3-azabicyclo[3.1.0]hexan-3-yl)pyridin-3-yl)ethyl)-1H-pyrazole-4-carboxamide], the IC50 is reported as 1.1 nM.
`CC(c1cnc(N2C[C@H]3C[C@H]3C2=O)c(F)c1)n1cc(C(=O)N[C@H]2C[C@@H](c3cc(Cl)ccc3C#N)C2)cn1` (single isomer, unassigned) [Example 22, N-((cis)-3-(5-chloro-2-cyanophenyl)cyclobutyl)-1-((S or R)-1-(5-fluoro-6-((1R,5S)-2-oxo-3-azabicyclo[3.1.0]hexan-3-yl)pyridin-3-yl)ethyl)-1H-pyrazole-4-carboxamide] gave an IC50 of 1.5 nM.
`COc1cc(C(C)n2cc(C(=O)N[C@H]3C[C@@H](c4cc(C)ccc4C#N)C3)cn2)cnc1N1C[C@H]2C[C@H]2C1=O` (single isomer, unassigned) [Example 23, N-((cis)-3-(2-cyano-5-methylphenyl)cyclobutyl)-1-((R or S)-1-(5-methoxy-6-((1R,5S)-2-oxo-3-azabicyclo[3.1.0]hexan-3-yl)pyridin-3-yl)ethyl)-1H-pyrazole-4-carboxamide] was tested, and the IC50 was 3.9 nM.
